We go through 35 compounds from patent publication US7329652B2, “Diaminotriazole compounds useful as protein kinase inhibitors” (Vertex Pharamaceuticals Incorporated, priority 2004, dated 2008).

Broadly, the pKi is −log10 of the Ki, conventionally taken in molar units.

For experiment [1], the target named is JAK-2 enzyme (Homo sapiens, UniProt O60674). Briefly: JAK2 inhibition assay (radiometric 33P filter assay). The experiment is classed as biochemical. Here is the method: (§1) Compounds were screened for their ability to inhibit JAK using the assay shown below. Reactions were carried out in a kinase buffer containing 100 mM HEPES (pH 7.4), 1 mM DTT, 10 mM MgCl2, 25 mM NaCl, and 0.01% BSA.
Chain of JAK-2 enzyme (O60674 whole entry, species assumed): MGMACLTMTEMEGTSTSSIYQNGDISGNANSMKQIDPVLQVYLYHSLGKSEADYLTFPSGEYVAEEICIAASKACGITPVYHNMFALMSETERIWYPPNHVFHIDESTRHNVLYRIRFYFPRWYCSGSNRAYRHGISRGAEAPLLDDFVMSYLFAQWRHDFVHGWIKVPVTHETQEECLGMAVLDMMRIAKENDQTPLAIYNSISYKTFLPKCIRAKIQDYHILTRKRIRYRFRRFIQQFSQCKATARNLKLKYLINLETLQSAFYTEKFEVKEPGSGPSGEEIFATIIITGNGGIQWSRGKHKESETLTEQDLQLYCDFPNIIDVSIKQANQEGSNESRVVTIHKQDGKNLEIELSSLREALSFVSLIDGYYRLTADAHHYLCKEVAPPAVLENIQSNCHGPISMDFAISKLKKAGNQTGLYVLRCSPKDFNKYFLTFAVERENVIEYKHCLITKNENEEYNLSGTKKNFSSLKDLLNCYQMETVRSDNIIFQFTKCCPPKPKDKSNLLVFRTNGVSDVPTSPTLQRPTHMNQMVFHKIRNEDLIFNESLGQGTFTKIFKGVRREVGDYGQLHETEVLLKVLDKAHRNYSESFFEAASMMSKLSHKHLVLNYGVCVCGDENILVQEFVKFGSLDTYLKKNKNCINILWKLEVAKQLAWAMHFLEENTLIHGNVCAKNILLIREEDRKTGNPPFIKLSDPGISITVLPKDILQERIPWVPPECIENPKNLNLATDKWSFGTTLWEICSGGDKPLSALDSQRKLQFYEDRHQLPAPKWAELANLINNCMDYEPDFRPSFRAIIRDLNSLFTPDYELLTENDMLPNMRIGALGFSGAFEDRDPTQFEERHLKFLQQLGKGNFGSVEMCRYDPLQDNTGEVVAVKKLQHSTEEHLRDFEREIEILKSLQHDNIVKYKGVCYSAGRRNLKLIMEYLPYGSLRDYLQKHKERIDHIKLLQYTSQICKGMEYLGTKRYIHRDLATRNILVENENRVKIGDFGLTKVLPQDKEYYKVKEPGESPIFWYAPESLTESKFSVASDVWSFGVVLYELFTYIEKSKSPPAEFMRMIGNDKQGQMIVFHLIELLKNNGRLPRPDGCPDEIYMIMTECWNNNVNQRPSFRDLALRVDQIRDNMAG
(§2) Substrate concentrations in the assay were 5 μM ATP (200 uCi/μmole ATP) and 1 μM poly(Glu)4Tyr. Reactions were carried out at 25° C. and 1 nM JAK3.
(§3) To each well of a 96 well polycarbonate plate was added 1.5 μl of a candidate JAK3 inhibitor along with 50 μl of kinase buffer containing 2 μM poly(Glu)4Tyr and 10 μM ATP. This was then mixed and 50 μl of kinase buffer containing 2 nM JAK3 enzyme was added to start the reaction. After 20 minutes at room temperature (25° C.), the reaction was stopped with 50 μl of 20% trichloroacetic acid (TCA) that also contained 0.4 mM ATP. The entire contents of each well were then transferred to a 96 well glass fiber filter plate using a TomTek Cell Harvester. After washing, 60 μl of scintillation fluid was added and ^33P incorporation detected on a Perkin Elmer TopCount.
The assays were as described above in Example 25 except that JAK-2 enzyme was used, the final poly(Glu)4Tyr concentration was 15 μM, and final ATP concentration was 12 μM.

In experiment [2] the target is T1, JAK3 (Homo sapiens, UniProt P52333).
T1 sequence (P52333 1-1124): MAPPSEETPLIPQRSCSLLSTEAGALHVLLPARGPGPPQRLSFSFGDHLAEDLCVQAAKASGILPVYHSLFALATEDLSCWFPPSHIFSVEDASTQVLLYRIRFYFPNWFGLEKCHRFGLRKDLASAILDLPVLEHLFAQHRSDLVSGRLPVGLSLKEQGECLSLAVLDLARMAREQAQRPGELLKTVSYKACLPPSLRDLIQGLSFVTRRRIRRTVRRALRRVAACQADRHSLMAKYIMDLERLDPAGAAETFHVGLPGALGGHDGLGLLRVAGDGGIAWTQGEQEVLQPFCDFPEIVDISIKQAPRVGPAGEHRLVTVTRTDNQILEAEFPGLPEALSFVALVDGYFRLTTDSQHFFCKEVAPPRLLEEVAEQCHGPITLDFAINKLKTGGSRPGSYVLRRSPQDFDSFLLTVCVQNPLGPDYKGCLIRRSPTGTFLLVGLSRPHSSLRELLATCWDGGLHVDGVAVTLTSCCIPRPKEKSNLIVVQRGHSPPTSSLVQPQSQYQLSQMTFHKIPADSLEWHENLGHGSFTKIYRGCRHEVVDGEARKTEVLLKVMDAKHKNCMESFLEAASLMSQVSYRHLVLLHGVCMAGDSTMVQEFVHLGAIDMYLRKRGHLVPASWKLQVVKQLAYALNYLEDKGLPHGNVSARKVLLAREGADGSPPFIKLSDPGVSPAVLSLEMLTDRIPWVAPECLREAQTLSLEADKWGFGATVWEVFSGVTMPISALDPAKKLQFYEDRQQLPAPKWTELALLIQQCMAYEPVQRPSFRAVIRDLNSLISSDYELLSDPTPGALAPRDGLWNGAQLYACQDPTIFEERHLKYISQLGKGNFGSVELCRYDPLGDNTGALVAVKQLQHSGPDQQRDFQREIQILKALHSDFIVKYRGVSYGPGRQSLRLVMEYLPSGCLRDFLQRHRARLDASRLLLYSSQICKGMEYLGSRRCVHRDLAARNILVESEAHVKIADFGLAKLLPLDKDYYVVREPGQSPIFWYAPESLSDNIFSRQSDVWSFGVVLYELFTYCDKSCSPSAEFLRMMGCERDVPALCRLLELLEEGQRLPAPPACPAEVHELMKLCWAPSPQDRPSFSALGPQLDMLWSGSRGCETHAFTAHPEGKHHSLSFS
Briefly: JAK3 inhibition assay (radiometric 33P filter assay). The class given is biochemical. As to the method: as §1, §2, §3

The mark [3] stands for this setting: 15 μM poly(Glu)4Tyr, 12 μM ATP, read-out: JAK2 inhibition data (Ki).
[4] abbreviates: 1 μM poly(Glu)4Tyr, 5 μM ATP, 1 nM JAK3, 25° C., read-out: JAK3 inhibition data (Ki).

pKi: −log10 of the molar value. Like-named read-outs stand apart in the source and are kept apart here.

On to `CC(=O)N1CCCN(c2cc(-n3nc(Nc4ccc(N5CCN(C(=O)OCC(C)(C)C)CC5)cc4)nc3N)ncn2)CC1` [Compound 49], for which the negative logarithm of the Ki (pKi) in experiment [1] (setting [3]) and in experiment [2] (setting [4]) was above 7.30 throughout.
Take `CC(=O)N1CCCN(c2cc(-n3nc(Nc4ccc(N5CCN(C(=O)C6CCOCC6)CC5)cc4)nc3N)ncn2)CC1` [Compound 41]: the pKi in experiment [1] (setting [3]) and in experiment [2] (setting [4]) was above 7.30 in each case.
As for `CC(=O)N1[C@H](C)CN(c2cc(-n3nc(Nc4ccc(NC(=O)NC5CCCCC5)cc4)nc3N)ncn2)C[C@@H]1C` [Compound 71], the pKi in experiment [1] (setting [3]) and in experiment [2] (setting [4]) was above 7.30 in each case.
Turning to `CC(=O)CC(=O)N1CCCN(c2cc(-n3nc(Nc4ccc(N5CCOCC5)cc4)nc3N)ncn2)CC1` [Compound 6], the pKi in experiment [1] (setting [3]) and in experiment [2] (setting [4]) was above 7.30 throughout.
As to `CC(=O)N1[C@H](C)CN(c2cc(-n3nc(Nc4ccc(NC(=O)OCC(C)C)cc4)nc3N)ncn2)C[C@@H]1C` [Compound 79], the negative logarithm of the Ki (pKi) in experiment [1] (setting [3]) and in experiment [2] (setting [4]) was above 7.30 each time.
Consider `CCCCS(=O)(=O)N1CCCN(c2cc(-n3nc(Nc4ccc(N5CCN(C(=O)OCC)CC5)cc4)nc3N)ccn2)CC1` [Compound 147], for which the pKi in experiment [1] (setting [3]) and in experiment [2] (setting [4]) was 6.30 to 7.30 throughout.
Take `CCCOC(=O)Nc1ccc(Nc2nc(N)n(-c3cc(N4CCCN(C(C)=O)CC4)ncn3)n2)cc1` [Compound 92]: the pKi in experiment [1] (setting [3]) and in experiment [2] (setting [4]) was above 7.30 throughout.
Regarding `CC(=O)N1[C@H](C)CN(c2cc(-n3nc(Nc4ccc(N5CCNCC5)cc4)nc3N)ncn2)C[C@@H]1C` [Compound 59], the negative-log Ki (pKi) in experiment [1] (setting [3]) and in experiment [2] (setting [4]) was above 7.30 throughout.
In the case of `CCCOC(=O)N1CCN(c2ccc(Nc3nc(N)n(-c4cc(N5C[C@@H](C)N(C(C)=O)[C@@H](C)C5)ncn4)n3)cc2)CC1` [Compound 55], the pKi in experiment [1] (setting [3]) and in experiment [2] (setting [4]) was above 7.30 each time.
For the compound `CC(=O)N1[C@H](C)CN(c2cc(-n3nc(Nc4ccc(N(C)C(=O)OCC(C)C)cc4)nc3N)ncn2)C[C@@H]1C` [Compound 120], the pKi in experiment [1] (setting [3]) and in experiment [2] (setting [4]) was above 7.30 throughout.
As for `CCCOC(=O)N1CCN(c2ccc(Nc3nc(N)n(-c4ccnc(N5CCCN(S(=O)(=O)CCC)CC5)c4)n3)cc2)CC1` [Compound 164], the pKi in experiment [1] (setting [3]) and in experiment [2] (setting [4]) was 6.30 to 7.30 each time.
With `CC(C)(C)OC(=O)Nc1ccc(Nc2nc(N)n(-c3cc(N4CCCN(C(=O)CC#N)CC4)ncn3)n2)cc1` [Compound 136], the pKi in experiment [1] (setting [3]) and in experiment [2] (setting [4]) was above 7.30 in each case.
Consider `CC(=O)N1[C@H](C)CN(c2cc(-n3nc(Nc4ccc(NC(=O)OCC(C)(C)C)cc4)nc3N)ncn2)C[C@@H]1C` [Compound 80], for which the pKi in experiment [1] (setting [3]) and in experiment [2] (setting [4]) was above 7.30 throughout.
Take `CC(=O)N1[C@H](C)CN(c2cc(-n3nc(Nc4ccc(N5CCN(C(=O)Nc6c(F)cccc6F)CC5)cc4)nc3N)ncn2)C[C@@H]1C` [Compound 66]: the pKi in experiment [1] (setting [3]) and in experiment [2] (setting [4]) was above 7.30 in each case.
Regarding `CCOC(=O)N1CCN(c2ccc(Nc3nc(N)n(-c4cc(N5CCCN(S(=O)(=O)CC)CC5)ncn4)n3)cc2)CC1` [Compound 145], the pKi in experiment [1] (setting [3]) and in experiment [2] (setting [4]) was 6.30 to 7.30 each time.
Turning to `CCOC(=O)CCNC(=O)N1CCN(c2ccc(Nc3nc(N)n(-c4cc(N5C[C@@H](C)N(C(C)=O)[C@@H](C)C5)ncn4)n3)cc2)CC1` [Compound 65], the pKi in experiment [1] (setting [3]) and in experiment [2] (setting [4]) was above 7.30 in each case.
With `COc1ccc(OC(=O)N(C)c2ccc(Nc3nc(N)n(-c4cc(N5CCCN(C(C)=O)CC5)ncn4)n3)cc2)cc1` [Compound 135], the pKi in experiment [1] and in experiment [2] was above 7.30 in each case.
Turning to `CC(=O)N1[C@H](C)CN(c2cc(-n3nc(Nc4ccc(N5CCN(C(=O)OC(C)(C)C)CC5)cc4)nc3N)ncn2)C[C@@H]1C` [Compound 52], the pKi in experiment [1] (setting [3]) and in experiment [2] (setting [4]) was above 7.30 each time.
For the compound `CC(=O)N1CCCN(c2cc(-n3nc(Nc4ccc(N(C)C)cc4)nc3N)ncn2)CC1` [Compound 10], the negative-log Ki (pKi) in experiment [1] (setting [3]) and in experiment [2] (setting [4]) was above 7.30 throughout.
As to `COCC(=O)N1CCCN(c2cc(-n3nc(Nc4ccc(N5CCOCC5)cc4)nc3N)ncn2)CC1` [Compound 5], the pKi in experiment [1] (setting [3]) and in experiment [2] (setting [4]) was above 7.30 throughout.
For the compound `CC(=O)N1[C@H](C)CN(c2cc(-n3nc(Nc4ccc(N(C)C(=O)OC(C)C)cc4)nc3N)ncn2)C[C@@H]1C` [Compound 119], the pKi in experiment [1] (setting [3]) and in experiment [2] (setting [4]) was above 7.30 in each case.
On to `CC(C)(C)OC(=O)N1CCN(c2ccc(Nc3nc(N)n(-c4cc(N5CCCN(C(=O)CC#N)CC5)ncn4)n3)cc2)CC1` [Compound 122], for which the pKi in experiment [1] (setting [3]) and in experiment [2] (setting [4]) was above 7.30 in each case.
For the compound `CCCOC(=O)N1CCN(c2ccc(Nc3nc(N)n(-c4ccnc(N5CCCN(S(=O)(=O)CC)CC5)c4)n3)cc2)CC1` [Compound 163], the negative-log Ki (pKi) in experiment [1] (setting [3]) and in experiment [2] (setting [4]) was 6.30 to 7.30 in each case.
For the compound `CC(C)OC(=O)N1CCN(c2ccc(Nc3nc(N)n(-c4ccnc(N5CCCN(S(C)(=O)=O)CC5)c4)n3)cc2)CC1` [Compound 168], the pKi in experiment [1] (setting [3]) and in experiment [2] (setting [4]) was 6.30 to 7.30 each time.
For `CC(=O)N1[C@H](C)CN(c2cc(-n3nc(Nc4ccc(NC(=O)NC(C)(C)C)cc4)nc3N)ccn2)C[C@@H]1C` [Compound 108], the pKi in experiment [1] (setting [3]) and in experiment [2] (setting [4]) was above 7.30 throughout.
Take `CC(=O)N1CCCN(c2cc(-n3nc(Nc4ccc(N(C)C(=O)OC(C)C)cc4)nc3N)ncn2)CC1` [Compound 130]: the pKi in experiment [1] (setting [3]) and in experiment [2] (setting [4]) was above 7.30 each time.
As to `CCCOC(=O)N1CCCN(c2cc(-n3nc(Nc4ccc(N5CCN(S(=O)(=O)CC)CC5)cc4)nc3N)ccn2)CC1` [Compound 154], the pKi in experiment [1] (setting [3]) and in experiment [2] (setting [4]) was 6.30 to 7.30 in each case.
As for `CCOC(=O)N1CCN(c2ccc(Nc3nc(N)n(-c4cc(N5CCCN(C(=O)CC#N)CC5)ncn4)n3)cc2)CC1` [Compound 124], the pKi in experiment [1] (setting [3]) and in experiment [2] (setting [4]) was above 7.30 each time.
For `CCCOC(=O)N1CCN(c2ccc(Nc3nc(N)n(-c4ccnc(N5CCCN(C(=O)OCCC)CC5)c4)n3)cc2)CC1` [Compound 160], the pKi in experiment [1] (setting [3]) and in experiment [2] (setting [4]) was 6.30 to 7.30 throughout.
As for `CCCOC(=O)Nc1ccc(Nc2nc(N)n(-c3cc(N4C[C@@H](C)N(C(C)=O)[C@@H](C)C4)ncn3)n2)cc1` [Compound 77], the pKi in experiment [1] (setting [3]) and in experiment [2] (setting [4]) was above 7.30 throughout.
In the case of `CCOC(=O)N1CCCN(c2cc(-n3nc(Nc4ccc(N5CCN(S(=O)(=O)CC)CC5)cc4)nc3N)ccn2)CC1` [Compound 153], the pKi in experiment [1] (setting [3]) and in experiment [2] (setting [4]) was 6.30 to 7.30 throughout.
As to `CC(=O)N1[C@H](C)CN(c2cc(-n3nc(Nc4ccc(N5CCN(C(=O)OCC(C)C)CC5)cc4)nc3N)ccn2)C[C@@H]1C` [Compound 128], the pKi in experiment [1] (setting [3]) and in experiment [2] (setting [4]) was above 7.30 throughout.
Take `CC(=O)N1[C@H](C)CN(c2cc(-n3nc(Nc4ccc(NC(=O)OCC(C)C)cc4)nc3N)ccn2)C[C@@H]1C` [Compound 100]: the pKi in experiment [1] (setting [3]) and in experiment [2] (setting [4]) was above 7.30 each time.
For `CCOC(=O)N1CCN(c2ccc(Nc3nc(N)n(-c4ccnc(N5CCCN(C(=O)OC)CC5)c4)n3)cc2)CC1` [Compound 148], the pKi in experiment [1] (setting [3]) and in experiment [2] (setting [4]) was 6.30 to 7.30 in each case.
With `CCCOC(=O)N1CCN(c2ccc(Nc3nc(N)n(-c4ccnc(N5CCCN(S(=O)(=O)C(C)C)CC5)c4)n3)cc2)CC1` [Compound 165], the negative-log Ki (pKi) in experiment [1] (setting [3]) and in experiment [2] (setting [4]) was 6.30 to 7.30 throughout.
